Where a SMILES comes first, the peptide text is derived from it. Bridges are numbered along the chain shown (N, C = ends).
Legend:
[1] = Water solubility of the peptides, with or without surfactant (appearance); format: physicochemical
Experimental: KS-133 and KS-133(P3S) (a substitution of proline at position three of KS-133 with serine) were synthesized at SCRUM Inc. (Tokyo, Japan) using Fmoc-based solid-phase peptide synthesis as previously reported. After reverse phase–high-performance liquid chromatography (RP–HPLC) purification, structural assignment was performed by matrix-assisted laser desorption ionization–time-of-flight mass spectrometry (MS). All analytical data of peptides in this report are presented in S1 Table. Cremophor EL® (CrEL) (09727–14) was purchased from Nacalai Tesque, Inc. (Kyoto, Japan). The nanoformulation of peptide using CrEL was done by basically according to the method as previously reported. First, KS-133 or KS-133(P3S) (20 mg) was dissolved in DMSO (100 μL), giving a concentration of 200 mg/mL. Next, CrEL (100 μL) was mixed with purified water (350 μL). The peptide solution was added dropwise to the stirring CrEL solution and mixed. Then, the peptide/CrEL solution made into a suspension by repeated vortex agitation and sonication at approximately 50°C. Purified water (450 μL) was added to the peptide/CrEL solution, and the same process was repeated. […]
Fig 3 Nanoformulation of peptides using CrEL and their characterization. […] The determined particle size of KS-133 NPs was approximately 15.34 nm, and that of KS-133(P3S) NPs was approximately 15.96 nm. […]

[2] = tested on: RAW264.7 murine macrophage-like cells; experiment: In vitro gene expression of M1-like and M2-like macrophage markers (real-time PCR); format: cell-based; conditions: RAW264.7 in 20% CT26-CM/DMEM, 3 days
Experimental: The detailed method and DNA primer sequences were described previously. RAW264.7 murine macrophage-like cells and CT26.WT murine colorectal cancer cells (CRL-2638) were purchased from RIKEN BRC (Tsukuba, Japan) and American Type Cell Collection (Manassas, VA, USA), respectively. CT26 cells (4 × 10^6) were grown in T75 flask with 20 mL of RPMI medium containing 10% FBS for 3 days. The culture medium (CT26-CM) was collected and centrifuged at 400 g for 5 min. RAW264.7 cells (2.4 × 10^5) were incubated in 24-well plate in the presence or absence of KS-133 (KS-133 concentration = 1, 3, or 10 μM, DMSO concentration = 0.1%) with 20% CT26-CM/DMEM for 3 days. During the incubation, medium containing KS-133 was replaced every day. mRNA extraction was performed using ISOGEN (Nippon Gene, Tokyo, Japan) on day 3 after CT26-CM incubation, and cDNA was prepared. The gene expression of M1 markers (TNF-α, iNOS, CXCL10), M2 markers (Mrc-1, IL-1rn, CCL22), and β-actin was analyzed by real-time polymerase chain reaction (PCR) using a 7300 Fast Real-Time PCR System (Applied Biosystems, Thermo Fisher Scientific, MA, USA,) and Light Cycler Fast Start DNA Master kit (Applied Biosystems). The relative mRNA expression was determined using the 2^−ΔΔCt method. ΔΔCt was calculated using control group data.
It has been reported that when RAW264.7 cells are incubated in the presence of the culture supernatant of CT26 cells, M1-type macrophage marker mRNA expression is decreased, and that of M2-type macrophages is increased. Using this assay system, we evaluated whether KS-133 affect the mRNA expression of TNFα, iNOS, and CXCL10 as M1-type macrophage markers and Mrc-1, IL-1Rn, and CCL-22 as M2-type macrophage markers. […] Therefore, VIPR2 inhibition by KS-133 changes the macrophage polarity toward M1.
Fig 1 Variation of marker gene expression in M1- and M2-type macrophages in the presence of KS-133. Results are presented as the mean ± SEM (n = 3 independent experiments using separately treated cultures, *p < 0.05 vs. control by two-way ANOVA).

[3] = KS-133 10 μM, 0.1% DMSO, 2^−ΔΔCt, n = 3, p < 0.05 vs control

concentration that could be dissolved in DMSO(10%)/CrEL(10%) ([1]; Fig 3C, transparent solution immediately after preparation): ≥ 20000 µg/mL
solubility in aqueous solution / water solubility (in words) ([1]; without surfactant): poor solubility
Compound: CC[C@H](C)[C@H](NC(=O)[C@H](CC(C)C)NC(=O)[C@@H]1CC(=O)NCCCC[C@@H]2NC(=O)[C@@H]3CCCN3C(=O)[C@H](CC(C)C)NC(=O)[C@H](Cc3ccc(O)cc3)NC(=O)[C@@H]3CCCN3C(=O)[C@@H]3CCCN3C(=O)[C@@H](NC(C)=O)CSSC[C@H](NC(=O)[C@H](CC(C)C)NC(=O)[C@H](Cc3ccc(O)cc3)NC2=O)C(=O)N1)C(N)=O [KS-133] (Ac-CPPYLPKYLCDLI-NH2; disulfide 1-10; lactam 7-11)
mRNA expression level of CXCL10 (M1-type macrophage marker) [2, 3]: significantly enhanced
mRNA expression level of iNOS (M1-type macrophage marker) [2, 3]: significantly enhanced
CCL22 expression (M2-type macrophage marker) [2]: no effect
IL-1Rn expression (M2-type macrophage marker) [2]: no effect
mRNA expression of Mrc-1 (M2-type macrophage marker) ([2]; n = 3, p < 0.05 vs control): significantly decreased
